{
  "source": "patent US4897394A",
  "about": "“Antiviral combinations” (Burroughs Wellcome CO., priority 1986, dated 1990)",
  "key": {"[1]": {"tested_on": "herpes simplex type 1 (KOS strain)", "assay": "Plaque reduction assay in Vero cells infected with herpes simplex type 1 (KOS strain)", "format": "cell-based", "conditions": "single agent; for Average Plaque Count: controls = 480", "method": "The antiviral activity was determined using a plaque reduction assay. Petri plates were seeded with Vero cells which were then allowed to grow to confluency. […] The inhibitors, either alone or in the indicated combinations, were dissolved to give the indicated concentrations in minimal essential medium containing 2% heat inactivated fetal calf serum and 0.5% human immune serum globulin. One hour after infection the solutions (10 ml per plate) were added to the cultures. Three days later the cultures were foramlin-fixed and stained with crystal violet, and the plaques were counted."}, "[2]": {"assay": "Acute toxicity (LD50), mice, oral", "conditions": "mouse, in vivo", "text": "(§1) The LD50 values for acyclovir, dilazep and dipyridamole, referred to above are as follows: […]"}, "[3]": {"assay": "Acute toxicity (LD50), rats, oral", "conditions": "rat, in vivo", "text": "as §1"}, "[4]": {"conditions": "Human alphaherpesvirus 1, Vero, Conc. 1.0 μM"}, "[5]": {"conditions": "Human alphaherpesvirus 1, Vero, Conc. 5.0 μM"}},
  "data": [
    {"smiles": "Nc1nc2c(ncn2COCCO)c(=O)[nH]1", "note": "[ACV, 9-[(2-hydroxyethoxy)methyl]guanine]", "values": [
      {"measurement": "Average Plaque Count", "setting": "[1]; Conc. 1.0 μM", "result": 279.5},
      {"measurement": "Average Plaque Count", "setting": "[1]; Conc. 2.5 μM", "result": 133.5},
      {"measurement": "Average Plaque Count", "setting": "[1]; Conc. 5.0 μM", "result": 29.5},
      {"measurement": "inhibition at 1 µM", "setting": "[1]; [4]", "result": 41.8, "unit": "%"},
      {"measurement": "inhibition at 2.5 µM", "setting": "[1]; Human alphaherpesvirus 1, Vero, Conc. 2.5 μM", "result": 72.3, "unit": "%"},
      {"measurement": "inhibition at 5 µM", "setting": "[1]; [5]", "result": 93.8, "unit": "%"},
      {"measurement": "LD50", "setting": "[2]; mice oral", "result": "> 10000", "unit": "mg/kg"}
    ]},
    {"smiles": "COc1cc(C(=O)OCCCN2CCCN(CCCOC(=O)c3cc(OC)c(OC)c(OC)c3)CC2)cc(OC)c1OC", "note": "[Dilazep]", "values": [
      {"measurement": "Average Plaque Count", "setting": "[1]; Conc. 1.0 μM", "result": 442.0},
      {"measurement": "inhibition at 1 µM", "setting": "[1]; [4]", "result": 8, "unit": "%"},
      {"measurement": "LD50", "setting": "[2]; male mice, oral", "result": 3740, "unit": "mg/kg"}
    ]},
    {"smiles": "OCCN(CCO)c1nc(N2CCCCC2)c2nc(N(CCO)CCO)nc(N3CCCCC3)c2n1", "note": "[Dipyridamole]", "values": [
      {"measurement": "Average Plaque Count", "setting": "[1]; Conc. 5.0 μM", "result": 474.0},
      {"measurement": "inhibition at 5 µM", "setting": "[1]; [5]", "result": 1, "unit": "%"},
      {"measurement": "LD50", "setting": "[3]", "result": 8400, "unit": "mg/kg"}
    ]},
    {"smiles": "O=[N+]([O-])c1ccc(CSc2ncnc3c2ncn3[C@@H]2O[C@H](CO)[C@@H](O)[C@H]2O)cc1", "note": "[Compound A, 6-[(4-nitrobenzyl)thio]-9-(β-D-ribofuranosyl)purine]", "values": [
      {"measurement": "Average Plaque Count", "setting": "[1]; Conc. 2.0 μM", "result": 484.0},
      {"measurement": "inhibition at 2 µM", "setting": "[1]; Human alphaherpesvirus 1, Vero, Conc. 2.0 μM", "result": 0, "unit": "%"}
    ]}
  ]
}
